What is called IC50 is the concentration at which inhibition is half-maximal. Low values mean inhibition by little substance, high ones a need for much substance.

A short description of data set [1]: Microcentrifuge dissolution test 1): transfer from intestinal buffer (IB) to colonic buffer (CB). The format is physicochemical. Particulars: for Concentration, CB Timepoint 4 min: pH 7.2, 4 min; for Concentration, CB Timepoint 10 min: pH 7.2, 10 min; for Concentration, CB Timepoint 20 min: pH 7.2, 20 min; for Concentration, CB Timepoint 40 min: pH 7.2, 40 min; for Concentration, CB Timepoint 90 min: pH 7.2, 90 min; for Concentration, CB Timepoint 1,200 min: pH 7.2, 1,200 min; for Concentration, IB Timepoint −5 min / Concentration, IB Timepoint −15 min / Concentration, IB Timepoint −25 min: PBS pH 6.5, 37° C.; for Additional concentration, UCF Timepoint 90 min / Additional concentration, UCF Timepoint 1,200 min: after ultracentrifugation (free drug + drug in micelles); for Additional concentration, UCF Timepoint 90 min: CB pH 7.2, 90 min; for Additional concentration, UCF Timepoint 1,200 min: CB pH 7.2, 1,200 min. On the procedure: In vitro non-sink dissolution performance of the Compound of Example 3 was evaluated alongside Reference Compounds A and B employing microcentrifuge dissolution tests in which samples were either 1) transferred from intestinal buffer (IB) to colonic buffer (CB) or 2) dosed directly into intestinal media containing simulated bile-salt micelles (IB-SIF). Dissolution performance of the compounds at various timepoints was determined by centrifugation and analysis of the supernatant concentrations by off-line reverse-phase HPLC analysis.
Test compounds (0.45 mg±0.05 mg) were weighed into a microcentrifuge tube, then 0.900 mL of IB receptor solution—phosphate buffered saline (PBS) warmed to 37° C. at pH 6.5—was added. A timer was started and the sample tubes were vortexed at the maximum setting for 1 minute. When the timer read 3, 13 and 23 min—corresponding to the 25, 15 and 5 min timepoints, respectively—the sample tubes were centrifuged for 1 min at 15,800 Relative Centrifugal Force (RCF). At each timepoint, a portion of the supernatant (50 μL) was added to diluent {250 μL of 75/25 THF/Water (v/v)} and the compound concentrations were measured by off-line HPLC analysis (Table 6a). After a further 5 min, 0.900 mL of CB receptor solution—pH 10.7 PBS solution—was added, such that the pH was adjusted to 7.2, and the timer was reset to 0 min. When the timer read 2, 8, 18, 38, 88 and 1,198 min—corresponding to the 4, 10, 20, 40, 90 and 1,200 min timepoints, respectively—the sample tubes were centrifuged for 1 min at 15,800 RCF. At each timepoint, a portion of the supernatant (50 μL) was added to diluent {250 μL of 75/25 THF/Water (v/v)} and the compound concentrations were measured by off-line HPLC analysis (Table 6a). The HPLC samples for the 90 and 1,200 min timepoints were additionally centrifuged for 8 min at 80,000 rpm at 37° C. in an ultracentrifuge (UCF), then the supernatant (50 μL) was added to diluent {250 μL of 75/25 THF/Water (v/v)} and the compound concentrations were measured by off-line HPLC analysis (Table 6b) to determine the concentration of free drug+drug in micelles.

Another data set deals with Jurkat cells. Nature of the data set: Cell cytotoxicity assay, Jurkat cell viability (assay (r)). The class given is cell-based, human. Particulars: 24 hours. On the procedure: 1×10^5 Jurkat cells (immortalised human T lymphocytes) are added to the appropriate number of wells of a 96 well plate in 100 μL of media (RPMI supplemented with 10% foetal bovine serum). 1 μL of DMSO control (final concentration 1.0% v/v) or test compound (final concentration 20, 5 or 1 μg/mL) is added to the wells and incubated at 37° C., 5% CO2. After 24 hours, the plate is centrifuged at 1200 rpm for 3 minutes and the supernatant discarded. Cells are then resuspended in 150 μL (final concentration 7.5 μg/mL) of propidium iodide (PI) in PBS and incubated at 37° C., 5% CO2 for 15 minutes. After 15 minutes, cells are analysed by flow cytometry (BD accuri) using the FL3 window. The % viability is calculated as the % of cells that are P negative in the test wells normalised to the DMSO control.

A short description of data set [2]: Microcentrifuge dissolution test 1): transfer from intestinal buffer (IB) to colonic buffer (CB). The class given is physicochemical. Particulars: PBS pH 6.5, 37° C.
In a further data set the test system is IL-8 release in PBMCs. Nature of the data set: LPS-induced IL-8 release in PBMC cells (assay (b)). The format is cell-based. Particulars: Homo sapiens, LPS-stimulated PBMCs. The text has this: Peripheral blood mononuclear cells (PBMCs) from healthy subjects are separated from whole blood using a density gradient (Lymphoprep, Axis-Shield Healthcare). […] The supernatant is harvested for determination of IL-8 and TNFα concentrations by sandwich ELISA (Duo-set, R&D systems) and read on the fluorescence microplate reader (Varioskan® Flash, ThermoFisher Scientific).

A further data set concerns the target p38 MAPKα (Homo sapiens (Human), UniProt Q16539). Nature of the data set: p38 MAPKα enzyme inhibition (FRET, Z-LYTE; Method 2). The class given is biochemical. On the procedure: The enzyme inhibitory activities of compounds disclosed herein are determined by FRET using synthetic peptides labelled with both donor and acceptor fluorophores (Z-LYTE, Invitrogen Ltd., Paisley, UK).
The inhibitory activities of test compounds against the p38 MAPKα isoform (MAPK14: Invitrogen) are evaluated indirectly by determining the level of activation/phosphorylation of the down-stream molecule, MAPKAP-K2. The p38 MAPKα protein (80 ng/mL, 2.5 μL) is mixed with the test compound (2.5 μL of either 4 μg/mL, 0.4 μg/mL, 0.04 μg/mL or 0.004 μg/mL) for 2 hr at RT. […] The mixture is incubated for 1 hr at RT. Development reagent (protease, 5 μL) is added for 1 hr prior to detection in a fluorescence microplate reader (Varioskan® Flash, ThermoFisher Scientific).
This method follows the same steps as Method 1 above, but utilises a higher concentration of the p38 MAPKα protein (2.5 μL of 200 ng/mL protein instead of 2.5 μL of 80 ng/mL protein) for mixing with the test compound (tested at either 1 μg/mL, 0.1 μg/mL, 0.01 μg/mL or 0.001 μg/mL).
In all cases, the site-specific protease cleaves non-phosphorylated peptide only and eliminates the FRET signal. Phosphorylation levels of each reaction are calculated using the ratio of coumarin emission (donor) over fluorescein emission (acceptor), for which high ratios indicate high phosphorylation and low ratios indicate low phosphorylation levels. […]

For the next data set, the system named is TNFα release in PBMCs. Nature of the data set: LPS-induced TNFα release in PBMC cells (assay (b)). The class given is cell-based. Particulars: Homo sapiens, LPS-stimulated PBMCs. On the procedure:
Peripheral blood mononuclear cells (PBMCs) from healthy subjects are separated from whole blood using a density gradient (Lymphoprep, Axis-Shield Healthcare). The PBMCs are seeded in 96 well plates and treated with compounds at the desired concentration for 2 hours before addition of 1 ng/mL LPS (Escherichia Coli 0111:B4 from Sigma Aldrich) for 24 hours under normal tissue culture conditions (37° C., 5% CO2). The supernatant is harvested for determination of IL-8 and TNFα concentrations by sandwich ELISA (Duo-set, R&D systems) and read on the fluorescence microplate reader (Varioskan® Flash, ThermoFisher Scientific). The concentration at 50% inhibition (IC50) of IL-8 and TNFα production is calculated from the dose response curve.

Sequence of p38 MAPKα (Q16539 whole entry, canonical isoform): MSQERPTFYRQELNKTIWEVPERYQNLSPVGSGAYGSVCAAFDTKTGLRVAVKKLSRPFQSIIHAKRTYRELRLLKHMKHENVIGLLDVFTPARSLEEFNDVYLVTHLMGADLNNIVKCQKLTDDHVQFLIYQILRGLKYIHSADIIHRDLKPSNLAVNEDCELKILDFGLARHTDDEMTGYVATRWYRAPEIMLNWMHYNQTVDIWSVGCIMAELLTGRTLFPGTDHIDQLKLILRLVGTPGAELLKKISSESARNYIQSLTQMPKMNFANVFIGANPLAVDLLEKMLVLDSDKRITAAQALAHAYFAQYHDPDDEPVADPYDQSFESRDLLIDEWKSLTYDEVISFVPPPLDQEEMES

As for `COc1cc(Nc2nccc(Oc3ccc(NC(=O)Nc4cc(C(C)(C)C)cc(NS(C)(=O)=O)c4OC)c4ccccc34)n2)cc(OCCOCCOCCC(=O)O)c1` [Reference Compound A, 3-(2-(2-(3-((4-((4-(3-(5-(tert-butyl)-2-methoxy-3-(methylsulfonamido)phenyl)ureido)naphthalen-1-yl)oxy)-pyrimidin-2-yl)amino)-5-methoxyphenoxy)ethoxy)ethoxy)propanoic acid], in data set [1], the “Concentration, CB Timepoint 4 min” value was 11400 ng/mL; the “Concentration, CB Timepoint 10 min” value worked out at 11500 ng/mL; the “Concentration, CB Timepoint 20 min” value was found to be 10700 ng/mL; the “Concentration, CB Timepoint 40 min” value stood at 10700 ng/mL. In addition, in data set [1], the “Concentration, CB Timepoint 90 min” value is 8400 ng/mL; the “Concentration, CB Timepoint 1,200 min” value was 7900 ng/mL; the “Concentration, IB Timepoint −5 min” value amounted to 5300 ng/mL; the “Concentration, IB Timepoint −15 min” value stood at 4600 ng/mL. For the same compound, in data set [1], the “Concentration, IB Timepoint −25 min” value stood at 2900 ng/mL; the “Additional concentration, UCF Timepoint 90 min” value amounted to 5.1 µg/mL; the “Additional concentration, UCF Timepoint 1,200 min” value came out at 3.9 µg/mL. In addition, in the data set with Jurkat cells, the “% Viability at 1 μg/mL” value is given as 96%, the “% Viability at 5 μg/mL” value is recorded as 93% and the “% Viability at 20 μg/mL” value was found to be 48%. Moreover, the “Concentration, IB Timepoint −30 min” value in data set [2] is 0 ng/mL.
With `COc1cc(Nc2cc(Oc3ccc(NC(=O)Nc4cc(C(C)(C)C)cc(NS(C)(=O)=O)c4OC)c4ccccc34)ccn2)cc(OCCOCCOCC(=O)O)c1` [Example 3], in data set [1], the “Concentration, CB Timepoint 4 min” value is 9300 ng/mL; the “Concentration, CB Timepoint 10 min” value worked out at 9100 ng/mL; the “Concentration, CB Timepoint 20 min” value was 14300 ng/mL; the “Concentration, CB Timepoint 40 min” value was 48300 ng/mL. In data set [1], the “Concentration, CB Timepoint 90 min” value turned out to be 60700 ng/mL; the “Concentration, CB Timepoint 1,200 min” value came to 85400 ng/mL; the “Concentration, IB Timepoint −5 min” value was 8500 ng/mL; the “Concentration, IB Timepoint −15 min” value was 7500 ng/mL. In addition, in data set [1], the “Concentration, IB Timepoint −25 min” value was determined as 5300 ng/mL; the “Additional concentration, UCF Timepoint 90 min” value is 34.1 µg/mL; the “Additional concentration, UCF Timepoint 1,200 min” value was determined as 74.9 µg/mL. In the data set on Jurkat cells, the “% Viability at 1 μg/mL” value was 99%, the “% Viability at 5 μg/mL” value stood at 99% and the “% Viability at 20 μg/mL” value was determined as 96%. Besides, in the data set with IL-8 release in PBMCs, the IC50 came out at 17.3 nM. Also, the IC50 on p38 MAPKα was 23 nM. This compound gave an IC50 in the data set with TNFα release in PBMCs of 10.8 nM. The “Concentration, IB Timepoint −30 min” value in data set [2] was 0 ng/mL.
On to `C#Cc1cc(Nc2nccc(Oc3ccc(NC(=O)Nc4cc(C(C)(C)C)nn4-c4ccc(C)cc4)c4ccccc34)n2)cc(C(=O)NCCOCCOCCOC)c1` [Reference Compound B, 3-((4-((4-(3-(3-(tert-butyl)-1-(p-tolyl)-1H-pyrazol-5-yl)ureido)naphthalen-1-yl)oxy)pyrimidin-2-yl)amino)-5-ethynyl-N-(2-(2-(2-methoxyethoxy)ethoxy)ethyl)benzamide], for which, in data set [1], the “Concentration, CB Timepoint 4 min” value was found to be 5000 ng/mL; the “Concentration, CB Timepoint 10 min” value was 1900 ng/mL; the “Concentration, CB Timepoint 20 min” value was determined as 900 ng/mL; the “Concentration, CB Timepoint 40 min” value came to 600 ng/mL. Moreover, in data set [1], the “Concentration, CB Timepoint 90 min” value stood at 0 ng/mL; the “Concentration, CB Timepoint 1,200 min” value was found to be 4900 ng/mL; the “Concentration, IB Timepoint −5 min” value was 2200 ng/mL; the “Concentration, IB Timepoint −15 min” value stood at 1000 ng/mL. Also, in data set [1], the “Concentration, IB Timepoint −25 min” value was found to be 1900 ng/mL; the “Additional concentration, UCF Timepoint 90 min” value was 0.0 µg/mL; the “Additional concentration, UCF Timepoint 1,200 min” value is 1.6 µg/mL. Besides, in data set [2], the “Concentration, IB Timepoint −30 min” value is 0 ng/mL.
